From publication PMC8621276, “Artemisinin Binds and Inhibits the Activity of Plasmodium falciparum Ddi1, a Retroviral Aspartyl Protease” (Pathogens, 2021)

Tests used:
Format in all cases: biochemical
PfDdi1 [1] = target: T1, PfDdi1 (Plasmodium falciparum, UniProt Q8IM03); assay: inhibition of FRET peptide, AMC peptide and K48 polyubiquitin cleavage; settings: 10 min preincubation, sodium acetate pH 5.0, 37 °C, 2.0 μM enzyme
T1 construct: gene PF3D7_1409300; full length (382 aa), His-tagged (pET-28b NcoI/XhoI), E. coli Rosetta (DE3), Ni-NTA; ~44 kDa plus processed ~34 kDa fragment
T1 sequence (Q8IM03 1-382): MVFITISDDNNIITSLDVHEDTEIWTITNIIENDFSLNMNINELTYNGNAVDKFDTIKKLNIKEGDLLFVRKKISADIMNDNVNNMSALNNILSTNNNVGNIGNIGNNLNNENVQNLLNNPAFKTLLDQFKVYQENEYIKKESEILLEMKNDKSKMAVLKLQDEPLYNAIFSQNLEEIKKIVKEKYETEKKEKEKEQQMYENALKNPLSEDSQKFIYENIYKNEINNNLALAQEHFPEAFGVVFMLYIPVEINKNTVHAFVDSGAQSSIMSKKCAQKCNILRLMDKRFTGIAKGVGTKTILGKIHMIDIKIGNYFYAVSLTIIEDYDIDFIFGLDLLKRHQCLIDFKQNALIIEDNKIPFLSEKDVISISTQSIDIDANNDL

PfDdi1 [2] = target: T1, PfDdi1; assay: inhibition of fluorogenic peptide cleavage
PfDdi1 [3] = target: T1, PfDdi1; assay: inhibition of FRET peptide cleavage

## C[C@@H]1CC[C@H]2[C@@H](C)C(O)O[C@@H]3O[C@@]4(C)CC[C@@H]1[C@]32OO4 (stereo partly drawn) [DHA, Dihydroartemisinin]
PfDdi1 [1]
  % inhibition at 1 μM: artemisinin and its derivative, DHA, significantly inhibited the ability of PfDdi1 to degrade the polyubiquitinated

## Cc1cccc(C)c1OCC(=O)N[C@@H](Cc1ccccc1)[C@@H](O)C[C@H](Cc1ccccc1)NC(=O)[C@H](C(C)C)N1CCCNC1=O [LPV, Lopinavir]
PfDdi1 [2]
  inhibition at 50 µM: ~23.5%

## C[C@@H]1CC[C@H]2[C@@H](C)C(=O)O[C@@H]3O[C@@]4(C)CC[C@@H]1[C@]32OO4 [ART, artemisinin]
PfDdi1 [3]
  inhibition at 1 µM: 71.4%
